These results are taken from patent US10322143B2, “Inhibitors of ADAMTS4 or ADAMTS5 for use in preventing or treating cardiac remodeling and chronic heart failure” (Universitetet i Oslo, priority 2013, dated 2019).

In test [1] the target is ADAMTS4 (Homo sapiens (Human), UniProt O75173). As to conditions: previous studies; cited from earlier work.
Test [2] concerns ADAMTS4 mRNA. Nature of the test: Myocardial ADAMTS4 mRNA expression (qRT-PCR) in aortic banding rats. It counts as in vivo, rat. As to conditions: AB-rats treated with PPS, left ventricle, six weeks after AB; normalized to RPL4, relative to vehicle-treated sham; median (interquartile range). The protocol: (§1) Three days after AB, rats were stratified by the gradient over the stenosis to ensure similar degree of cardiac stress. Two and two stratified rats were randomized to either 6 mg/kg of the sulfated polysaccharide sodium pentosan polysulfate (PPS) (Interfarm AS, Norway) or vehicle (0.9% NaCl) injected subcutaneously every third day. […] Six weeks after AB or sham operation, the rats were examined by echocardiography and postmortem analysis, performed by experienced investigators (IS, JMA) blinded to treatment group.
In addition, mRNA levels of proteins known to modulate ADAMTS activity or versican function were measured; tissue inhibitor of metalloprotease (TIMP)-3, hyaluronic acid (HA) synthase 1 and 2, and membrane-type (MT)4-MMP, while mRNA levels of ADAMTS1, -4, and versican were quantified in NFB and NCM.
Total RNA was isolated from the left ventricle in AB rats, neonatal rat cardiomyocytes and fibroblasts (RNeasy mini kit, Qiagen, Valencia, Calif.). […] The results were detected on an ABI PRISM 7900 Sequence Detection System (Applied Biosystems, CA).

Test [3] deals with ADAMTS4 (Rattus norvegicus (Rat), UniProt Q9ESP7). Briefly: ADAMTS4 protein level in myocardial protein fractions (immunoblotting), aortic banding rats. It counts as in vivo. As to conditions: AB-rats after PPS-treatment. The procedure:
as §1
Proteins from rat myocardium were extracted as previously described (Didangelos et al. J Biol Chem 2012. 287(23):19341-5). […]
Protein concentrations were measured using the Micro BCA Protein Assay Kit (Pierce/Thermo Scientific, IL). […]
(§2) Membranes were blocked in 5% non-fat dry-milk (170-6404, BioRad) overnight. […] Primary antibodies used were against ADAMTS4 (PA1-1750, Thermo Pierce Scientific, IL), versican full length (sc-25831, Santa Cruz Biotechnology, CA) and versican fragments displaying the neo-epitope DPEEAE (ab19345, Abcam, Cambrigde, UK) resulting from ADAMTS cleavage by ADAMTS1/4 (Sandy J D et al. J Biol Chem 2001. 276(16):13372-8; Didangelos A et al. supra), and quantified by ImageJ.

Test [4] relates to versican. Briefly: Versican DPEEAE fragments and full-length versican in myocardial ECM fractions (immunoblotting), aortic banding rats. It counts as in vivo, rat. The protocol: as §1
Proteins from rat myocardium were extracted as previously described (Didangelos et al. J Biol Chem 2012. 287(23):19341-5). Briefly, proteins were separated into three fractions; NaCl-soluble extracellular proteins (NaCl-ECM) and guanidine-soluble extracellular proteins (G-ECM), containing the fluid and matrix compartment of ECM respectively, in addition to cellular and cell-linked proteins dissolvable in SDS (SDS-samples) (FIG. 6D). NaCl-ECM and G-ECM were deglycosylated to remove GAG chains using 4 mU/NaCl-sample and 12 mU/G-sample of Chondroitinase ABC (from Proteus vulgaris, G3667, Sigma-Aldrich, MO) and 5 mU/NaCl-sample and 15 mU/G-sample of keratanase (endo-β-galactosidase from Bacteroides fragilis, G6920, Sigma-Aldrich), as previously described (Didangelos A et al. supra).
Protein concentrations were measured using the Micro BCA Protein Assay Kit (Pierce/Thermo Scientific, IL). Sample buffer was mixed with 5-25 μg (G-samples) or 30 μg (NaCl and SDS samples) of the protein lysate, denatured at 96° C. for 10 min, and run on 1.5 mm 4-12% Bis-Tris gradient gels (Nupage, Invitrogen, CA), with MOPS SDS running buffer until the 37 kDa protein marker reached the bottom of the gel. All protein extracts were loaded blinded to group.
SDS-PAGE and immunoblotting was performed as described in the Criterion BioRad protocol, using polyvinylidene fluoride (PVDF) membranes (GE Healthcare Life Sciences, Uppsala, Sweden). Blots were developed using the ECL Plus Western Blotting Detection System (GE Healthcare) and visualized in the Las-4000 mini from Fujifilm (Japan). Before reprobing, stripping was performed using the Restore Western Blot Stripping Buffer (21059, Thermo Scientific, IL). […]
as §2

Where [5] appears, read: PPS-treated AB-rats, normalized to control, median (interquartile range).

ADAMTS4 (Homo sapiens (Human), UniProt O75173), sequence (O75173 213-837, species assumed): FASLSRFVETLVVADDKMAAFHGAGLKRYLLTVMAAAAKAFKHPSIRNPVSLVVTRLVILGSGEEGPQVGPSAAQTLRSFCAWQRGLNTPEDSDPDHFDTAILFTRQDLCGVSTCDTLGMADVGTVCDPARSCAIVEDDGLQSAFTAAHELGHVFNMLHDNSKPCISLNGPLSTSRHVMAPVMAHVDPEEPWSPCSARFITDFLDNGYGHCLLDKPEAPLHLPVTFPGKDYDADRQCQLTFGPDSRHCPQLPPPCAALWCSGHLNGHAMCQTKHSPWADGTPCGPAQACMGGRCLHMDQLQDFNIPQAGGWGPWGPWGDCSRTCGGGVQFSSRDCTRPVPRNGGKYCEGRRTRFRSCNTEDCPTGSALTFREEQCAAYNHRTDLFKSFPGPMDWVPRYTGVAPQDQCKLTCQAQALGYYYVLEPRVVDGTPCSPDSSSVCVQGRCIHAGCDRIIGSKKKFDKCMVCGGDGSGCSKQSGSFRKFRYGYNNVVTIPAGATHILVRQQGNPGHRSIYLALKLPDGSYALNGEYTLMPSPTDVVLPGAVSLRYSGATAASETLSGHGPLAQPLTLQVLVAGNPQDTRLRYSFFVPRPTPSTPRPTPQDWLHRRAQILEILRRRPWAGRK

As to pentosan polysulfate [PPS], the “aggrecanase activity of ADAMTS4” value in test [1] is recorded as “inhibits”. Further, in test [2], the “ADAMTS4 mRNA level” value is given as 1.29 (1.00-6.45). In test [3], the “level of ADAMTS4 in the protein fractions” value is given as “not altered”. The “change of p150 versican in NaCl-ECM compared to vehicle-treated AB-rats” value in test [4] (PPS-treated AB-rats vs vehicle-treated AB-rats, p=0.05) is “halved”. For the same substance, in test [4] (setting [5]), the “level of full-length versican (p400) in G-ECM” value is 1.17 (0.77-6.85) and the “level of p150 versican DPEEAE fragment in NaCl-ECM” value is recorded as 1.08 (0.69-1.63). For the same substance, in test [4] (PPS-treated sham, normalized to control, median (interquartile range)), the “p70 versican fragment level in G-ECM” value is given as 0.34 (0.28-0.61).
